# Patent publication US12227520B2 (priority 2019, dated 2025)
# Experiments:
# HIV-1 (IIIB) = assay: Antiviral assay in MT-4 cells (HIV MT-4 antiviral assay); format: cell-based; conditions: Human immunodeficiency virus 1, IIIB, MT4, 120 h, HIV-1 (IIIB) in MT-4 cells, 5 days incubation; read-out: EC50
# Method: Compounds were tested in a high-throughput 384-well assay format for their ability to inhibit the replication of HIV-1 (IIIB) in MT-4 cells. Compounds were serially diluted (1:3) in DMSO on 384-well polypropylene plates and further diluted 200-fold into complete RPMI media (10% FBS, 1% P/S) using the Biotek Micro Flow and Labcyte ECHO acoustic dispenser. Each plate contained up to 8 test compounds, with negative (No Drug Control) and 5 μM AZT positive controls. MT-4 cells were pre-infected with 10 μL of either RPMI (mock-infected) or a fresh 1:250 dilution of HIV-1 IIIB concentrated virus stock. Infected and uninfected MT-4 cells were further diluted in complete RPMI media and added to each plate using a Micro Flow dispenser. After 5 days incubation in a humidified and temperature controlled incubator (37° C.), Cell Titer Glo (Promega) was added to the assay plates and chemiluminescence read using an Envision plate-reader.
# [1] = Cytotoxicity assay in MT-4 cells; format: cell-based, human; conditions: human, uninfected MT-4 cells, 5 days incubation; read-out: CC50
# Method: Each plate contained up to 8 test compounds, with negative (No Drug Control) and 5 μM AZT positive controls. MT-4 cells were pre-infected with 10 μL of either RPMI (mock-infected) or a fresh 1:250 dilution of HIV-1 IIIB concentrated virus stock. Infected and uninfected MT-4 cells were further diluted in complete RPMI media and added to each plate using a Micro Flow dispenser. After 5 days incubation in a humidified and temperature controlled incubator (37° C.), Cell Titer Glo (Promega) was added to the assay plates and chemiluminescence read using an Envision plate-reader. […] Assays were performed as above except uninfected MT-4 cells were added to each well containing test compound. In addition, 10 μM puromycin was added to the last column of each assay plate to assess a base level of cytotoxicity.
Compound,EC50 (HIV-1 (IIIB)) [nM],CC50 at 5 days [1] [nM]
"CO[C@@H]1CCN2C[C@H](C1)n1cc(C(=O)NCc3c(F)cc(F)cc3F)c(=O)c(O)c1C2=O [Example 103-1, (5R,7S)-12-hydroxy-5-methoxy-1,11-dioxo-N-(2,4,6-trifluorobenzyl)-1,4,5,6,7,11-hexahydro-3H-2,7-methanopyrido[1,2-a][1,4]diazonine-10-carboxamide]",8.97,> 50000
"O=C(NCc1ccc(F)cc1F)c1cn2c(c(O)c1=O)C(=O)N1C[C@@H]2CCc2ccccc21 (single isomer, unassigned) [Example 37-2]",1.2,12900
"O=C(NCc1ccc(F)cc1F)c1cn2c(c(O)c1=O)C(=O)N1CCc3cc(Cl)ccc3[C@H]2C1 [Example 140-1, (13S)-10-chloro-N-(2,4-difluorobenzyl)-4-hydroxy-3,5-dioxo-3,5,8,13-tetrahydro-7H-6,13-methanobenzo[g]pyrido[1,2-a][1,4]diazonine-2-carboxamide]",24.1,14600
"C[C@@]1(F)CC[C@H]2CN(C1)C(=O)c1c(O)c(=O)c(C(=O)NCc3c(F)cc(F)cc3F)cn12 [Example 132-1, (4R,7S)-4-fluoro-12-hydroxy-4-methyl-1,11-dioxo-N-(2,4,6-trifluorobenzyl)-1,4,5,6,7,11-hexahydro-3H-2,7-methanopyrido[1,2-a][1,4]diazonine-10-carboxamide]",8.83,> 50000
"COC1CCCN2C[C@@H]1n1cc(C(=O)NCc3c(F)cc(F)cc3F)c(=O)c(O)c1C2=O (stereo partly drawn) [Example 99-1, (7S)-12-hydroxy-6-methoxy-1,11-dioxo-N-(2,4,6-trifluorobenzyl)-1,4,5,6,7,11-hexahydro-3H-2,7-methanopyrido[1,2-a][1,4]diazonine-10-carboxamide]",1.53,> 22200
"O=C(NCc1c(F)cc(F)cc1F)c1cn2c(c(O)c1=O)C(=O)N1Cc3ccc(Cl)cc3C[C@@H]2C1 (single isomer, unassigned) [Example 127-2]",3.93,13700
"O=C(NCc1c(F)cc(F)cc1F)c1cn2c(c(O)c1=O)C(=O)N1C[C@H]2CCc2c(Cl)cccc21 [Example 45-2, (12R)-1-chloro-7-hydroxy-6,8-dioxo-N-(2,4,6-trifluorobenzyl)-6,8,13,14-tetrahydro-12H-5,12-methanobenzo[e]pyrido[1,2-a][1,4]diazonine-9-carboxamide]",30.3,8890
"O=C(NCc1ccc(F)cc1F)c1cn2c(c(O)c1=O)C(=O)N1C(=O)C2CCc2ccccc21 (centres unmarked) [Example 27, N-(2,4-difluorobenzyl)-7-hydroxy-6,8,15-trioxo-6,8,13,14-tetrahydro-12H-5,12-methanobenzo[e]pyrido[1,2-a][1,4]diazonine-9-carboxamide]",> 100,10900
"C[C@@]1(O)CCN2C[C@H](C1)n1cc(C(=O)NCc3c(F)cc(F)cc3F)c(=O)c(O)c1C2=O [Example 107-2, (5R,7S)-5,12-dihydroxy-5-methyl-1,11-dioxo-N-(2,4,6-trifluorobenzyl)-1,4,5,6,7,11-hexahydro-3H-2,7-methanopyrido[1,2-a][1,4]diazonine-10-carboxamide]",12.1,> 50000
"CC1=CC[C@H]2CN(C1)C(=O)c1c(O)c(=O)c(C(=O)NCc3c(F)cc(F)cc3F)cn12 [Example 132-3, (7S)-12-hydroxy-4-methyl-1,11-dioxo-N-(2,4,6-trifluorobenzyl)-1,6,7,11-tetrahydro-3H-2,7-methanopyrido[1,2-a][1,4]diazonine-10-carboxamide]",2.14,24100
"C[C@@]1(F)CCN2C[C@H](C1)n1cc(C(=O)NCc3c(F)cc(F)cc3F)c(=O)c(O)c1C2=O [Example 115-2, (5R,7S)-5-fluoro-12-hydroxy-5-methyl-1,11-dioxo-N-(2,4,6-trifluorobenzyl)-1,4,5,6,7,11-hexahydro-3H-2,7-methanopyrido[1,2-a][1,4]diazonine-10-carboxamide]",2.58,28100
"O=C(NCc1ccc(F)cc1F)c1cn2c(c(O)c1=O)C(=O)N1CCOC[C@@H]2C1 [Example 28, (7S)—N-(2,4-difluorobenzyl)-12-hydroxy-1,11-dioxo-1,3,4,6,7,11-hexahydro-2,7-methanopyrido[1,2-d][1,4,7]oxadiazonine-10-carboxamide]",13.5,> 50000
"O=C(NCc1c(F)cc(F)cc1F)c1cn2c(c(O)c1=O)C(=O)N1CCCC(O)C2C1 (centres unmarked) [Example 11, 6,12-dihydroxy-1,11-dioxo-N-(2,4,6-trifluorobenzyl)-1,4,5,6,7,11-hexahydro-3H-2,7-methanopyrido[1,2-a][1,4]diazonine-10-carboxamide]",7.2,> 50000
"O=C(NCc1c(F)cc(F)cc1F)c1cn2c(c(O)c1=O)C(=O)N1C[C@@H]2CCc2cccc(F)c21 [Example 46-1, (12S)-4-fluoro-7-hydroxy-6,8-dioxo-N-(2,4,6-trifluorobenzyl)-6,8,13,14-tetrahydro-12H-5,12-methanobenzo[e]pyrido[1,2-a][1,4]diazonine-9-carboxamide]",90.2,9240
"O=C(NCc1c(F)cc(F)cc1F)c1cn2c(c(O)c1=O)C(=O)N1CCCC2CC1 (racemic) [Example 24, 11-hydroxy-1,10-dioxo-N-(2,4,6-trifluorobenzyl)-1,3,4,5,6,10-hexahydro-2,6-ethanopyrido[1,2-a][1,4]diazocine-9-carboxamide]",27.3,13800
"O=C(NCc1ccc(F)cc1F)c1cn2c(c(O)c1=O)C(=O)N1Cc3ccc(Cl)cc3C[C@@H]2C1 (single isomer, unassigned) [Example 128-2]",7.37,> 50000
"O=C(NCc1ccc(F)cc1F)c1cn2c(c(O)c1=O)C(=O)N1CCCC(O)(C(F)F)[C@H]2C1 (stereo partly drawn) [Example 76, (7R)—N-(2,4-difluorobenzyl)-6-(difluoromethyl)-6,12-dihydroxy-1,11-dioxo-1,4,5,6,7,11-hexahydro-3H-2,7-methanopyrido[1,2-a][1,4]diazonine-10-carboxamide]",7.99,23700
"O=C(NCc1ccc(F)cc1F)c1cn2c(c(O)c1=O)C(=O)N1CCNCC2C1 (centres unmarked) [Example 30, N-(2,4-difluorobenzyl)-12-hydroxy-1,11-dioxo-1,4,5,6,7,11-hexahydro-3H-2,7-methanopyrido[1,2-a][1,4,7]triazonine-10-carboxamide]",6.9,1660
"O=C(NCc1ccc(F)cc1F)c1cn2c(c(O)c1=O)C(=O)N1CCOC[C@H]2C1 [Example 29, (7R)—N-(2,4-difluorobenzyl)-12-hydroxy-1,11-dioxo-1,3,4,6,7,11-hexahydro-2,7-methanopyrido[1,2-d][1,4,7]oxadiazonine-10-carboxamide]",7,> 50000
"CC1(F)CCCN2CC1n1cc(C(=O)NCc3ccc(F)cc3F)c(=O)c(O)c1C2=O (single isomer, unassigned) [Example 17-1a, N-(2,4-difluorobenzyl)-6-fluoro-12-hydroxy-6-methyl-1,11-dioxo-1,4,5,6,7,11-hexahydro-3H-2,7-methanopyrido[1,2-a][1,4]diazonine-10-carboxamide]",1.5,12900
"CC12CCCCN(C1)C(=O)c1c(O)c(=O)c(C(=O)NCc3c(F)cc(F)cc3F)cn12 (centres unmarked) [Example 18, 12-hydroxy-7-methyl-1,11-dioxo-N-(2,4,6-trifluorobenzyl)-1,4,5,6,7,11-hexahydro-3H-2,7-methanopyrido[1,2-a][1,4]diazonine-10-carboxamide]",1.4,29400
"O=C(NCc1ccc(F)cc1F)c1cn2c(c(O)c1=O)C(=O)N1CCc3cc(F)c(F)cc3[C@@H]2C1 (single isomer, unassigned) [Example 111-2]",56.9,9940
"Cn1ncc2c1CC[C@H]1CN2C(=O)c2c(O)c(=O)c(C(=O)NCc3c(F)cc(F)cc3F)cn21 [Example 85-2, (11S)-6-hydroxy-1-methyl-5,7-dioxo-N-(2,4,6-trifluorobenzyl)-1,5,7,11,12,13-hexahydro-4,11-methanopyrazolo[4,3-e]pyrido[1,2-a][1,4]diazonine-8-carboxamide]",5.85,> 49300
"O=C(NCc1ccc(F)cc1F)c1cn2c(c(O)c1=O)C(=O)N1C[C@@H]2COc2cc(F)c(F)cc21 [Example 92-1, (6R)—N-(2,4-difluorobenzyl)-10,11-difluoro-1-hydroxy-2,14-dioxo-2,6,7,14-tetrahydro-6,13-methanobenzo[b]pyrido[2,1-f][1,4,7]oxadiazonine-3-carboxamide]",535,> 50000
"O=C(NCc1ccc(F)cc1F)c1cn2c(c(O)c1=O)C(=O)N1C[C@H]2CCC(F)(F)C1 [Example 4-1, (7R)—N-(2,4-difluorobenzyl)-4,4-difluoro-12-hydroxy-1,11-dioxo-1,4,5,6,7,11-hexahydro-3H-2,7-methanopyrido[1,2-a][1,4]diazonine-10-carboxamide]",6.4,23300
